Measured values: patent US12077503B2, “Substituted cyclic amides and their use as herbicides” (FMC CORPORATION, priority 2015, dated 2024)

Key:
Type in all cases: in vivo
Kochia (Kochia scoparia) [1] = experiment: Test A preemergence
Summary of the method: (§1)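 Visual injury scores from 0, no effect, to 100, complete control, were assigned versus untreated controls roughly 10 d after treatment in the greenhouse. Test chemicals, formulated with surfactant in a non-phytotoxic solvent, were applied to planted seeds as a preemergence soil spray or postemergence to one- to two-leaf plants 2 to 10 cm tall, in loam–sand soil.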

[2] = test system: barnyardgrass (Echinochloa crus-galli); experiment: Test A preemergence
Summary of the method: as §1

[3] = test system: giant foxtail (Setaria faberii); experiment: Test A preemergence
Summary of the method: as §1

[4] = test system: pigweed (Amaranthus retroflexus); experiment: Test A preemergence
[5] = test system: ragweed (common ragweed, Ambrosia elatior); experiment: Test A preemergence
Summary of the method: as §1

[6] = test system: ryegrass, Italian (Italian ryegrass, Lolium multiflorum); experiment: Test A preemergence
Summary of the method: as §1

[7] = test system: Galium (catchweed bedstraw, Galium aparine); experiment: Test A postemergence
Summary of the method: as §1

Kochia (Kochia scoparia) [8] = experiment: Test A postemergence
Summary of the method: as §1

[9] = test system: barnyardgrass (Echinochloa crus-galli); experiment: Test A postemergence
Summary of the method: as §1

[10] = test system: blackgrass (Alopecurus myosuroides); experiment: Test A postemergence
Summary of the method: as §1

corn (Zea mays) = experiment: Test A postemergence
Summary of the method: as §1

[11] = test system: giant foxtail (Setaria faberii); experiment: Test A postemergence
Summary of the method: as §1

[12] = test system: pigweed (Amaranthus retroflexus); experiment: Test A postemergence
Summary of the method: as §1

[13] = test system: ragweed (common ragweed, Ambrosia elatior); experiment: Test A postemergence
Summary of the method: as §1

[14] = test system: ryegrass, Italian (Italian ryegrass, Lolium multiflorum); experiment: Test A postemergence
Summary of the method: as §1

[15] = test system: wheat (Triticum aestivum); experiment: Test A postemergence
Summary of the method: as §1

[16] = test system: barnyardgrass (Echinochloa crus-galli); experiment: Test B flooded paddy test; conditions: Flood, 250 g ai/ha; 0 to 100 scale where 0 is no effect and 100 is complete control; 13 to 15 d
Summary of the method: (§2)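 Response scored visually against untreated controls, 0 = no effect and 100 = complete control, 13–15 d after treatment in the greenhouse. Compounds added to paddy water held 3 cm above soil surface. Treatment given at 2-leaf stage.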

[17] = test system: ducksalad (Heteranthera limosa); experiment: Test B flooded paddy test; conditions: Flood, 250 g ai/ha; 0 to 100 scale where 0 is no effect and 100 is complete control; 13 to 15 d
Summary of the method: as §2

rice (Oryra sativa) = experiment: Test B flooded paddy test; conditions: Flood, 250 g ai/ha; 0 to 100 scale where 0 is no effect and 100 is complete control; 13 to 15 d
Summary of the method: as §2

[18] = test system: sedge, umbrella (small-flower umbrella sedge, Cyperus difformis); experiment: Test B flooded paddy test; conditions: Flood, 250 g ai/ha; 0 to 100 scale where 0 is no effect and 100 is complete control; 13 to 15 d
Summary of the method: as §2

[19] = test system: lambsquarters (Chenopodium album); experiment: Test C preemergence; conditions: for Plant response rating, Lambsquarters: scale 0 to 100, 0 no effect, 100 complete control
Summary of the method: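 Visual 0 (no effect) to 100 (complete control) ratings versus controls, taken 13–15 d after treatment in the greenhouse; dash means no result. Compounds in a surfactant-containing non-phytotoxic solvent blend were applied preemergence to seeds in loam-sand soil or postemergence to 1- to 4-leaf plants (2–18 cm) in peat-based medium.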

[20] = 125 g ai/ha, Preemergence, visual injury after approximately 10 d, 0 to 100 scale where 0 is no effect and 100 is complete control
[21] = 500 g ai/ha, preemergence, 0 to 100 scale, 0 = no effect, 100 = complete control
[22] = 125 g ai/ha, postemergence, visual rating after approx. 10 d, 0 to 100 scale (0 no effect, 100 complete control)
[23] = Postemergence, 500 g ai/ha, 0 to 100 scale where 0 is no effect and 100 is complete control
[24] = 125 g ai/ha, preemergence, 0 to 100 scale (0 no effect, 100 complete control)
[25] = Preemergence, 500 g ai/ha, visual injury approx. 10 d
[26] = 125 g ai/ha, postemergence, visual injury rating on 0 to 100 scale (0 no effect, 100 complete control), approx. 10 d
[27] = 500 g ai/ha, postemergence, 0 to 100 scale, 0 no effect, 100 complete control

CN1CC(c2ccc(C(F)(F)F)cc2)C(C(=O)Nc2ccccc2S(C)(=O)=O)C1=O (centres unmarked) [Compound 624]
Plant response rating, Kochia (Kochia (Kochia scoparia) [1]; [20]): 40
Plant response rating, Kochia (Kochia (Kochia scoparia) [1]; [21]): 60
Plant response rating, Barnyardgrass [2, 20]: 90
Plant response rating, Barnyardgrass [2, 21]: 90
Plant response rating, Foxtail, Giant [3, 20]: 90
Plant response rating, Foxtail, Giant [3, 21]: 90
Plant response rating, Pigweed [4, 20]: 80
Plant response rating, Pigweed [4, 21]: 80
Plant response rating, Ragweed [5, 20]: 60
Plant response rating, Ragweed [5, 21]: 70
Plant response rating, Ryegrass, Italian [6, 20]: 40
Plant response rating, Ryegrass, Italian [6, 21]: 40
Plant response rating, Galium [7, 22]: 30
Plant response rating, Galium [7, 23]: 50
Plant response rating, Kochia (Kochia (Kochia scoparia) [8]; [22]): 0
Plant response rating, Kochia (Kochia (Kochia scoparia) [8]; [23]): 60
Plant response rating, Barnyardgrass [9, 22]: 80
Plant response rating, Barnyardgrass [9, 23]: 90
Plant response rating, Blackgrass [10, 22]: 40
Plant response rating, Blackgrass [10, 23]: 50
Plant response rating, Corn (corn (Zea mays); [22]): 0
Plant response rating, Corn (corn (Zea mays); [23]): 40
Plant response rating, Foxtail, Giant [11, 22]: 80
Plant response rating, Foxtail, Giant [11, 23]: 90
Plant response rating, Pigweed [12, 22]: 20
Plant response rating, Pigweed [12, 23]: 60
Plant response rating, Ragweed [13, 22]: 0
Plant response rating, Ragweed [13, 23]: 0
Plant response rating, Ryegrass, Italian [14, 22]: 30
Plant response rating, Ryegrass, Italian [14, 23]: 30
Plant response rating, Wheat [15, 22]: 20
Plant response rating, Wheat [15, 23]: 70
Plant response rating, Barnyardgrass [16]: 70
Plant response rating, Ducksalad [17]: 100
Plant response rating, Rice (rice (Oryra sativa)): 20
Plant response rating, Sedge, Umbrella [18]: 0
Plant response rating (scale of 0 to 100), Lambsquarters ([19]; 31 g ai/ha, 0 is no effect, 100 is complete control): 35
Plant response rating, Lambsquarters ([19]; 62 g ai/ha): 40
Plant response rating, Lambsquarters ([19]; 125 g ai/ha): 70
Plant response rating, Lambsquarters ([19]; 250 g ai/ha): 60

CN1CC(c2ccc(C(F)(F)F)c(F)c2)C(C(=O)Nc2ccccc2S(C)(=O)=O)C1=O (centres unmarked) [Compound 397]
Plant response rating, Kochia (Kochia (Kochia scoparia) [1]; [24]): 70
Kochia plant response rating (0 to 100 scale, 0 is no effect, 100 is complete control) (Kochia (Kochia scoparia) [1]; [25]): 90
Plant response rating, Barnyardgrass [2, 24]: 80
Barnyardgrass plant response rating (0 to 100 scale, 0 is no effect, 100 is complete control) [2, 25]: 90
Plant response rating, Foxtail, Giant [3, 24]: 90
Foxtail, Giant plant response rating (0 to 100 scale, 0 is no effect, 100 is complete control) [3, 25]: 90
Plant response rating, Pigweed [4, 24]: 90
Pigweed plant response rating (0 to 100 scale, 0 is no effect, 100 is complete control) [4, 25]: 90
Plant response rating, Ragweed [5, 24]: 50
Ragweed plant response rating (0 to 100 scale, 0 is no effect, 100 is complete control) [5, 25]: 70
Plant response rating, Ryegrass, Italian [6, 24]: 30
Ryegrass, Italian plant response rating (0 to 100 scale, 0 is no effect, 100 is complete control) [6, 25]: 70
Galium plant response rating [7, 26]: 60
Plant response rating, Galium [7, 27]: 60
Kochia plant response rating (Kochia (Kochia scoparia) [8]; [26]): 20
Plant response rating, Kochia (Kochia (Kochia scoparia) [8]; [27]): 50
Barnyardgrass plant response rating [9, 26]: 70
Plant response rating, Barnyardgrass [9, 27]: 90
Blackgrass plant response rating [10, 26]: 60
Plant response rating, Blackgrass [10, 27]: 70
Corn plant response rating (corn (Zea mays); [26]): 50
Plant response rating, Corn (corn (Zea mays); [27]): 70
Foxtail, Giant plant response rating [11, 26]: 70
Plant response rating, Foxtail, Giant [11, 27]: 80
Pigweed plant response rating [12, 26]: 40
Plant response rating, Pigweed [12, 27]: 70
Ragweed plant response rating [13, 26]: 0
Plant response rating, Ragweed [13, 27]: 20
Ryegrass, Italian plant response rating [14, 26]: 40
Plant response rating, Ryegrass, Italian [14, 27]: 60
Wheat plant response rating [15, 26]: 40
Plant response rating, Wheat [15, 27]: 50
Plant response rating, Barnyardgrass [16]: 65
Plant response rating, Ducksalad [17]: 75
Plant response rating, Rice (rice (Oryra sativa)): 0
Plant response rating, Sedge, Umbrella [18]: 0
Plant response rating, Lambsquarters ([19]; 31 g ai/ha): 30
Plant response rating, Lambsquarters ([19]; 62 g ai/ha): 70
Plant response rating, Lambsquarters ([19]; 125 g ai/ha): 75
Plant response rating, Lambsquarters ([19]; 250 g ai/ha): 75
